Experimental data taken from patent US20100209496A1, “LIQUID AND SEMI-SOLID PHARMACEUTICAL FORMULATIONS FOR ORAL ADMINISTRATION OF A SUBSTITUTED AMIDE” (priority 2006, published 2010).

Assays:
[1] = Compound I Form I solubility in various liquid vehicles; assay type: physicochemical; details: aqueous
[2] = Bioavailability when dosed as a crystalline solid (dogs); assay type: in vivo
[3] = Bioavailability when dosed as a crystalline solid (rats); assay type: in vivo
[4] = Bioavailability (drug plasma levels) from liquid-filled capsule dosage form; assay type: in vivo; details: compound in solution in liquid and semi-solid excipients, versus crystalline solid

aqueous solubility [1]: < 0.2 µg/mL
bioavailability [2]: poorly bioavailable
bioavailability [3]: poorly bioavailable
bioavailability [4]: increased dramatically
Substance: 3-[(3aR,4R,5S,7aS)-5-{(1R)-1-[3,5-bis(Trifluoromethyl)phenyl]ethoxy}-4-(4-fluorophenyl)-octahydro-2H-isoindol-2-yl]cyclopent-2-en-1-one [Compound I]
